Measured values as given in patent US8324245B2, “Quinoline derivative and quinazoline derivative inhibiting self-phosphorylation of hepatocytus proliferator receptor, and medicinal composition containing the same” (Kyowa Hakko Kirin Co., Ltd., priority 2001, dated 2012).

target: T1, met (HGF receptor) in human gastric cancer cells MKN45 (Homo sapiens, UniProt P08581); assay: Inhibitory activity against met-autophosphorylation using ELISA method (2), MKN45 cells, HGF-independent; format: cell-based
T1 construct: endogenous in cells; host or cells: MKN45 human gastric cancer cells
In short: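 Met autophosphorylation was read by sandwich ELISA: phosphotyrosine capture (PY20), anti-HGF receptor detection, peroxidase read-out at 450 nm. Lysates came from MKN45 gastric cancer cells kept in 0.1% FCS RPMI and treated 1 h at 37 °C with test compound, with no added HGF.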

T1 sequence (P08581 25-1390): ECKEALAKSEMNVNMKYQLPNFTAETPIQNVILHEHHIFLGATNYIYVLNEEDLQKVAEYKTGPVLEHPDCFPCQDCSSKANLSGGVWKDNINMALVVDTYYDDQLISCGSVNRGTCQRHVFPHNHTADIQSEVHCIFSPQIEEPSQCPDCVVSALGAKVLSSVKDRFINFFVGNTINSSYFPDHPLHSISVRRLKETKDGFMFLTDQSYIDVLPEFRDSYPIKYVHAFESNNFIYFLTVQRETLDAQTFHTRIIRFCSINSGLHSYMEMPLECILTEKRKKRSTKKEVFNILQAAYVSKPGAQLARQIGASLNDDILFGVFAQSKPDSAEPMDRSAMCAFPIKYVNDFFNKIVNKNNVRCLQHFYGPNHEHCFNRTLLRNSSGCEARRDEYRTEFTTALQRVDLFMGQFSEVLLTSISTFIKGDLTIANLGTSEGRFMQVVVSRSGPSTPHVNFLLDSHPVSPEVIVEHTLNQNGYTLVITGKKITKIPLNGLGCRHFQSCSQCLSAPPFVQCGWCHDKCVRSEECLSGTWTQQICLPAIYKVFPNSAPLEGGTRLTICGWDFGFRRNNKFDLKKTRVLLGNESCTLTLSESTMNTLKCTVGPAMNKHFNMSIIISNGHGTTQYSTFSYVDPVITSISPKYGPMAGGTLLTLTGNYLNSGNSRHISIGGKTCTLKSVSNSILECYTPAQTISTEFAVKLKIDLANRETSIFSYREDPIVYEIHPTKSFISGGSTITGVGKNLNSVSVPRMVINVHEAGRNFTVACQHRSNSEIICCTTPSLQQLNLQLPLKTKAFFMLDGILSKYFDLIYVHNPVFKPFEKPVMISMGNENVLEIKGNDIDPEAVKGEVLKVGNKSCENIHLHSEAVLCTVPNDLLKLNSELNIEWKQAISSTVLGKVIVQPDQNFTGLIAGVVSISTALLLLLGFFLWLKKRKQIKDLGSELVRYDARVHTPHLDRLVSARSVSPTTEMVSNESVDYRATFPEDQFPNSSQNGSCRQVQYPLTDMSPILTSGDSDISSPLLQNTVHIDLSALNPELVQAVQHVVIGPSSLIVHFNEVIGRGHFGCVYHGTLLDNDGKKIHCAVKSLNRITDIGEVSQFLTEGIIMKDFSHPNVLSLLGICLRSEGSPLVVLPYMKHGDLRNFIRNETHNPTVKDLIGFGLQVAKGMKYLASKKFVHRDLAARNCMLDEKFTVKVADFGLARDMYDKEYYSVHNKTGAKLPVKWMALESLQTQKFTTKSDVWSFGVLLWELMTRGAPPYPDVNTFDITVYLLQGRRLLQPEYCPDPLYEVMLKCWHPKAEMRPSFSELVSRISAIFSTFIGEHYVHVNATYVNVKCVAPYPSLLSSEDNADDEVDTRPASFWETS

Row | SMILES | IC50 [µM]
1 | COc1cc2c(Oc3ccc(NC(=S)NC(=O)Cc4ccccc4)cc3F)ccnc2cc1OCCN1CCCN(C)CC1 [Example 273, 1-(3-Fluoro-4-{6-methoxy-7-[2-(4-methyl-[1,4]diazepan-1-yl)-ethoxy]-3-quinolin-4-yloxy}-phenyl)-3-phenylacetyl-thiourea] | 0.024
2 | COc1cc2nccc(Oc3ccc(NC(=S)NC(=O)CCCC(C)C)cc3F)c2cc1OC [Example 179, 1-[4-(6,7-dimethoxyquinolin-4-yloxy)-3-fluorophenyl]-3-(5-methyl-hexanoyl)thiourea] | 0.261
3 | COc1cc2nccc(Oc3ccc(NC(=S)NC(=O)Cc4ccccc4C)cc3Cl)c2cc1OC [Example 149, 1-[3-chloro-4-(6,7-dimethoxyquinolin-4-yloxy)phenyl]-3-(2-o-tolylacetyl)thiourea] | 0.236
4 | COc1ccccc1NC(=O)CC(=O)Nc1ccc(Oc2ccnc3cc(OC)c(OC)cc23)cc1 [Example 211, N-[4-(6,7-dimethoxyquinolin-4-yloxy)phenyl]-N′-(2-methoxyphenyl)malonamide] | 0.252
5 | COc1cc2c(Oc3ccc(NC(=O)NC(=O)Cc4ccccc4)c(F)c3)ccnc2cc1OCCCN1CCOCC1 [Example 287] | 0.0225
6 | COc1cc2c(Oc3ccc(NC(=O)NC(=O)Cc4ccc(F)cc4)cc3F)ccnc2cc1OCCCN1CCCCC1 [Example 47, 1-{3-fluoro-4-[6-methoxy-7-(3-piperidin-1-yl-propoxy)quinolin-4-yloxy]phenyl}-3-[2-(4-fluorophenyl)-acetyl]urea] | 0.215
7 | COc1cc2c(Oc3ccc(NC(=O)NC(=O)Cc4ccc(F)cc4)cc3F)ccnc2cc1OCCCCN1CCN(C)CC1 [Example 43, 1-(3-fluoro-4-{6-methoxy-7-[4-(4-methyl-piperazin-1-yl)-butoxy]quinolin-4-yloxy}phenyl)-3-[2-(4-fluorophenyl)acetyl]urea] | 0.167
8 | COc1cc2nccc(Oc3ccc(NC(=O)NC(=O)CN(C)C(C)C)cc3Cl)c2cc1OC [Example 112, 1-[3-chloro-4-(6,7-dimethoxyquinolin-4-yloxy)phenyl]-3-[2-(isopropylmethylamino)acetyl]urea] | 1.73
9 | COc1cc2nccc(Oc3ccc(NC(=O)NC(=O)Cc4ccccc4F)c(F)c3)c2cc1OC [Example 26, 1-[4-(6,7-dimethoxyquinolin-4-yloxy)-2-fluoro-phenyl]-3-[2-(2-fluorophenyl)acetyl]urea] | 0.126
10 | COc1cc(Oc2ccnc3cc(OC)c(OC)cc23)ccc1NC(=S)NC(=O)Cc1ccccc1 [Example 69, 1-[4-(6,7-dimethoxyquinolin-4-yloxy)-2-methoxyphenyl]-3-phenylacetylthiourea] | 0.0044
11 | COc1cc2c(Oc3ccc(NC(=S)NC(=O)Cc4ccc(F)cc4)cc3F)ccnc2cc1OCC(O)CN1CCCCC1 (stereo not shown) [Example 329, 1-{3-Fluoro-4-[7-(2-hydroxy-3-piperidin-1-yl-propoxy)-6-methoxy-quinolin-4-yloxy]-phenyl}-3-[2-(4-fluoro-phenyl)-acetyl]-thiourea] | 0.0518
12 | COc1cc2nccc(Oc3ccc(NC(=O)NC(=O)Nc4ccc(F)cc4F)cc3)c2cc1OC [Example 229, N-(2,4-difluorophenyl)-({[4-(6,7-dimethoxy-quinolin-4-yloxy)anilino]carbonyl}amino)methanamide] | 0.273
13 | COc1cc2nccc(Oc3ccc(NC(=O)NC(=O)Nc4ccc(Cl)cc4C)cc3)c2cc1OC [Example 242, N-(4-chloro-2-methylphenyl)-({[4-(6,7-dimethoxyquinolin-4-yloxy)anilino]carbonyl}amino)-methanamide] | 0.851
14 | COc1cc2nccc(Oc3ccc(NC(=O)NC(=O)CSC4CCCC4)cc3Cl)c2cc1OC [Example 116, 1-[3-chloro-4-(6,7-dimethoxyquinolin-4-yloxy)phenyl]-3-(2-cyclopentylsulfanylacetyl)urea] | 0.344
15 | COc1cccc(CC(=O)NC(=S)Nc2ccc(Oc3ccnc4cc(OC)c(OC)cc34)c(Cl)c2)c1 [Example 186, 1-[3-chloro-4-(6,7-dimethoxyquinolin-4-yloxy)phenyl]-3-[2-(3-methoxyphenyl)acetyl]thiourea] | 0.234
16 | COc1cc2nccc(Oc3ccc(NC(=O)NC(=O)Cc4ccc(F)cc4)cc3)c2cc1OC [Example 22, 1-[4-(6,7-dimethoxyquinolin-4-yloxy)phenyl]-3-[2-(4-fluorophenyl)acetyl]urea] | 0.0246
17 | COc1cc2nccc(Oc3ccc(NC(=O)NC(=O)Cc4cccc(F)c4)c(F)c3)c2cc1OC [Example 36, 1-[4-(6,7-dimethoxyquinolin-4-yloxy)-2-fluoro-phenyl]-3-[2-(3-fluorophenyl)acetyl]urea] | 0.198
18 | COc1cc2nccc(Oc3ccc(NC(=O)NC(=O)Cc4c(F)cccc4F)cc3F)c2cc1OC [Example 135, 1-[2-(2,6-difluorophenyl)acetyl]-3-[4-(6,7-dimethoxyquinolin-4-yloxy)-3-fluorophenyl]urea] | 0.226
19 | COc1cc2nccc(Oc3ccc(NC(=S)NC(=O)Cc4cccc(C(F)(F)F)c4)cc3F)c2cc1OC [Example 203, 1-[4-(6,7-dimethoxyquinolin-4-yloxy)-3-fluorophenyl]-3-[2-(3-trifluoromethylphenyl)acetyl]-thiourea] | 0.281
20 | COc1cc2nccc(Oc3ccc(NC(=O)NC(=O)Nc4ccccc4SC)cc3)c2cc1OC [Example 253, N-[2-(methylsulfanyl)phenyl]-({[4-(6,7-dimethoxyquinolin-4-yloxy)anilino]carbonyl}amino)-methanamide] | 1.34
21 | COc1cc2nccc(Oc3ccc(NC(=O)NC(=O)Cc4cccs4)cc3)c2cc1OC [Example 29, 1-[4-(6,7-dimethoxyquinolin-4-yloxy)phenyl]-3-(2-thiophen-2-ylacetyl)urea] | 0.0371
22 | COc1cc2nccc(Oc3ccc(NC(=O)NC(=O)CN4CCc5ccccc54)c(F)c3)c2cc1OC [Example 121, 1-[2-(2,3-dihydro-1H-1-indol-1-yl)acetyl]-3-[4-(6,7-dimethoxyquinolin-4-yloxy)-2-fluorophenyl]urea] | 0.338
23 | COc1cc2nccc(Oc3ccc(NC(=O)NC(=O)CSC4CCCCC4)cc3F)c2cc1OC [Example 115, 1-(2-cyclohexylsulfanylacetyl)-3-[4-(6,7-dimethoxyquinolin-4-yloxy)-3-fluorophenyl]urea] | 0.359
24 | COc1cc2nccc(Oc3ccc(NC(=S)NC(=O)Cc4ccccc4C)c(F)c3)c2cc1OC [Example 170, 1-[4-(6,7-dimethoxyquinolin-4-yloxy)-2-fluorophenyl]-3-(2-o-tolylacetyl)thiourea] | 0.274
25 | COc1cc2nccc(Oc3ccc(NC(=S)NC(=O)CCCC(C)C)c(F)c3)c2cc1OC [Example 178, 1-[4-(6,7-dimethoxyquinolin-4-yloxy)-2-fluorophenyl]-3-(5-methyl-hexanoyl)thiourea] | 0.268

Continued, values first:

Row | IC50 [µM] | SMILES
26 | 0.04 | COc1cc2nccc(Oc3ccc(NC(=S)NC(=O)Cc4ccccc4C)cc3F)c2cc1OC [Example 84, 1-[4-(6,7-dimethoxyquinolin-4-yloxy)-3-fluorophenyl]-3-(2-o-tolylacetyl)thiourea]
27 | 0.226 | COc1cc2nccc(Oc3ccc(NC(=S)NC(=O)Cc4ccccc4C(F)(F)F)cc3F)c2cc1OC [Example 201, 1-[4-(6,7-dimethoxyquinolin-4-yloxy)-3-fluorophenyl]-3-[2-(2-trifluoromethylphenyl)acetyl]-thiourea]
28 | 0.246 | COc1cc2nccc(Oc3ccc(NC(=S)NC(=O)CCC4CCCC4)cc3)c2cc1OC [Example 161, 1-(3-cyclopentylpropionyl)-3-[4-(6,7-dimethoxyquinolin-4-yloxy)phenyl]thiourea]
29 | 0.248 | COc1cc2nccc(Oc3ccc(NC(=S)NC(=O)Cc4ccccc4F)cc3Cl)c2cc1OC [Example 152, 1-[3-chloro-4-(6,7-dimethoxyquinolin-4-yloxy)phenyl]-3-[2-(2-fluorophenyl)acetyl]thiourea]
30 | 0.0374 | COc1cc2c(Oc3ccc(NC(=O)NC(=O)Cc4ccccc4)cc3F)ccnc2cc1OCCCN1CCN(C)CC1 [Example 53, 1-(3-fluoro-4-{6-methoxy-7-[3-(4-methyl-piperazin-1-yl)-propoxy]quinolin-4-yloxy}phenyl)-3-phenylacetylurea]
31 | 0.0234 | COc1cc2c(Oc3ccc(NC(=S)NC(=O)Cc4cccc(F)c4)cc3F)ccnc2cc1OCC(O)CN1CCCCC1 (stereo not shown) [Example 324, 1-{3-Fluoro-4-[7-(2-hydroxy-3-piperidin-1-yl-propoxy)-6-methoxy-quinolin-4-yloxy]-phenyl}-3-[2-(3-fluoro-phenyl)-acetyl]-thiourea]
32 | 0.0236 | COc1cc2c(Oc3ccc(NC(=S)NC(=O)Cc4ccc(C)cc4)cc3F)ccnc2cc1OCC(O)CN1CCOCC1 (stereo not shown) [Example 335]
33 | 0.485 | COc1cc2nccc(Oc3ccc(NC(=O)NC(=O)CSC4CCCCC4)c(F)c3)c2cc1OC [Example 114, 1-(2-cyclohexylsulfanylacetyl)-3-[4-(6,7-dimethoxyquinolin-4-yloxy)-2-fluorophenyl]urea]
34 | 0.928 | CCCCNC(=O)CC(=O)Nc1ccc(Oc2ccnc3cc(OC)c(OC)cc23)cc1 [Example 209, N-butyl-N′-[4-(6,7-dimethoxyquinolin-4-yloxy)phenyl]malonamide]
35 | 0.0401 | COc1cc2nccc(Oc3ccc(NC(=S)NC(=O)CC4C5CCC4CC5)cc3Cl)c2cc1OC (stereo not shown) [Example 91, 1-(2-bicyclo[2.2.1]hepto-7-ylacetyl)-3-[3-chloro-4-(6,7-dimethoxyquinolin-4-yloxy)phenyl]thiourea]
36 | 0.019 | COc1cc2c(Oc3ccc(NC(=S)NC(=O)Cc4ccccc4)cc3F)ccnc2cc1OCCN1CCOCC1 [Example 276]
37 | 0.0211 | COc1cc2c(Oc3ccc(NC(=S)NC(=O)Cc4ccc(F)cc4)cc3F)ccnc2cc1OCCCN1CCC(CO)CC1 [Example 310, 1-(3-Fluoro-4-{7-[3-(4-hydroxymethyl-piperidin-1-yl)-propoxy]-6-methoxy-quinolin-4-yloxy}-phenyl)-3-[2-(4-fluoro-phenyl)-acetyl]-thiourea]
